# Values quoted from earlier work in US9233176B2, “Systems and method of delivering fluids to a patient of varying concentration” (Bayer HealthCare LLC, priority 2006, dated 2016).
# Like-named read-outs stand apart in the source and are kept apart here.
smiles,measurement,setting,value
COCC(=O)Nc1c(I)c(C(=O)NCC(O)CO)c(I)c(C(=O)N(C)CC(O)CO)c1I (centres unmarked) [Iopromide],iodine flux rate,"300 mg I/ml solution, application flow rate 8 ml/s",2400 mg I/s
same,iodine flux rate,"370 mg I/ml solution, application flow rate 6 ml/s",2220 mg I/s
